Values of other authors, collected in US7659264B2, “CGRP receptor antagonists” (Merck Sharp & Dohme Corp., priority 2004, dated 2010).
Where no end group is shown, it is not given here.

Assays:
migraine = settings: clinical studies, intravenously administered
facial blood flow [1] = settings: marmoset, electrical stimulation of the trigeminal ganglion
facial blood flow [2] = settings: rat, trigeminal ganglion stimulation
[3] = tested on: diameter of the middle meningeal artery; settings: rats, electrical stimulation of the dura mater, prior administration

| Compound | acute treatment for migraine (migraine) | effect on increase in facial blood flow (facial blood flow [1]) | effect on increased facial blood flow (facial blood flow [2]) | effect on increased diameter of the middle meningeal artery [3] |
| --- | --- | --- | --- | --- |
| NCCCC[C@H](NC(=O)[C@@H](Cc1cc(Br)c(O)c(Br)c1)NC(=O)N1CCC(N2Cc3ccccc3NC2=O)CC1)C(=O)N1CCN(c2ccncc2)CC1 [BIBN4096BS] | safe and effective acute treatment for migraine | could be blocked |  |  |
| CGRP(8-37): a peptide CGRP antagonist; fragment of CGRP that lacks seven N-terminal amino acid residues (VTHRLAGLLSRSGGVVKNNFVPTNVGSKAF; ends and bridges not checked; UniProt P06881 90-119, looked up, fragment) |  |  | inhibited | blocked |
